Measured values: PMC9413390 (Molecules, 2022)
Counter-ions that a name gives are not always drawn. Like-named read-outs stand apart in the source and are kept apart here.

Tests used:
σ2R = biological target: T1, σ2R (Rattus norvegicus, UniProt Q5U3Y7); experiment: σ2R radioligand competition binding assay ([3H]DTG, rat liver membranes)
T1 construct: The thawed membrane preparation of rat liver (250 μg/sample) was incubated; from tissue; host or cells: liver membranes of male Sprague-Dawley rats
T1 sequence (Q5U3Y7 1-176): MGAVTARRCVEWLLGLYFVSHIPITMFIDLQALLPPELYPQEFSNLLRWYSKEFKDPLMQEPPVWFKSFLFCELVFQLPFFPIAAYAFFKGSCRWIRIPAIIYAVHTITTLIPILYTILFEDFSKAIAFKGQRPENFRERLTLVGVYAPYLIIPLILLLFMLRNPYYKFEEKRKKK

σ1R = biological target: T2, σ1R (Cavia porcellus, UniProt Q60492); experiment: σ1R radioligand competition binding assay ([3H]-(+)-pentazocine, guinea pig brain cortex membranes); details: for Ki σ2R/σ1R selectivity ratio: ratio of Ki σ2R to Ki σ1R
T2 construct: The thawed membrane preparation of guinea pig brain cortex (250 μg/sample) was incubated; from tissue; host or cells: brain cortex membranes of male Dunkin-Hartley guinea pigs

[1] = test system: formalin-induced pain behaviour; experiment: Mouse formalin test; assay type: in vivo
Procedure: Mice injected with 5% formalin into the mid-plantar surface of the right hind paw developed the characteristic formalin-induced pain behaviour, evidenced by a biphasic flinching and lifting/licking response. The time course of formalin-induced behaviours evidenced an immediate and acute nociceptive activity (0–5 min, phase I) that, after a short quiescent period (5–10 min, interphase), was followed by a more prolonged response (10–60 min, phase II).
To evaluate the systemic antinociceptive effect in both phases of the formalin test, vehicle, (−)-2R-LP2 (2) (2mg/kg), (−)-2S-LP2 (3) (0.7 mg/kg), (+)-2R/S-LP2 (7) (5 mg/kg), and (+)-2R-LP2 (8) (5 mg/kg) were administrated intraperitoneally (i.p.) 20 min before formalin injection, at doses chosen in accordance to previous studies.
Experiments were performed on male CD1 mice (Envigo Laboratories, Indianapolis, IN, USA) aged between 8 and 12 weeks. Mice were housed in 5 animals per cage under a 12/12 h light/dark cycle at a constant temperature (23–25 °C) with free access to food and water, and were allowed to acclimate for at least one week upon arrival before starting all experiments, which were conducted between 9:00 a.m. and 3:00 p.m. This study was executed according to the European Communities Council directive and Italian regulation (EEC Council 2010/63/EU and Italian D.Lgs. no. 26/2014) to replace, reduce, and refine the use of laboratory animals. All procedures were approved by the ethical committee of the University of Catania (OPBA) and by the Italian Ministry of Health (authorization n° 385/2021-PR).
Formalin and naloxone hydrochloride were purchased from Merck. PRE-84 synthesis was reported in the supporting information (Figure S7). All compounds were dissolved in pyrogen-free isotonic saline and dimethyl sulfoxide, (DMSO 0.5% v/v). All LP compounds were administrated i.p. 20 min before formalin injection. Naloxone hydrochloride s.c. and PRE-084 hydrochloride s.c. were administered 20 min before the injection of the LP compounds.
Formalin solution (5%, 10 μL) was administered subcutaneously into the plantar surface of the right hind paw (i.pl.), monitoring the nociceptive behavior, such as licking and flicking or shanking the injected paw, for 1 h and recording every 5 min, as previously reported.
The formalin injection induces a rapid pain response (phase I), which lasts about 5 min, due to direct nociceptors’ activation, characterized by an acute form of pain. After a short quiescent period, another behavioral pain form (phase II) occurs, considered more important clinically, characterized by an inflammatory component and persistent pain due to nociceptive sensitization in the dorsal horn of the spinal cord.
Results are expressed as mean ± S.E.M. (n = 8–10 per group). * p < 0.05, ** p < 0.01. Two-way ANOVA was followed by Bonferroni’s multiple comparison test. Statistical analyses were performed using GraphPad Prism version 9.3.1 (GraphPad Software, San Diego, CA, USA).

[2] = test system: formalin-induced pain behaviour; design: method as in PMID 32186844, PMID 19587856; details: mouse, injected alone; cited from earlier work
DOR = biological target: T3, DOR (Rattus norvegicus, UniProt P33533); experiment: DOR radioligand binding assay ([3H]-Deltorphin II, rat brain membranes)
T3 construct: from tissue; host or cells: brain membranes of male Sprague-Dawley rats

MOR = biological target: T4, MOR (Rattus norvegicus, UniProt P33535); experiment: MOR radioligand binding assay ([3H]-DAMGO, rat brain membranes)
T4 construct: from tissue; host or cells: brain membranes of male Sprague-Dawley rats

KOR = biological target: T5, KOR (Cavia porcellus, UniProt P41144); experiment: biochemical; assay type: binding, guinea pig
T5 construct: from tissue; host or cells: brain membranes of male Dunkin-Hartley guinea pigs

[3] = 5 mg/kg i.p. 20 min before formalin, vs vehicle

T4 sequence (P33535 whole entry): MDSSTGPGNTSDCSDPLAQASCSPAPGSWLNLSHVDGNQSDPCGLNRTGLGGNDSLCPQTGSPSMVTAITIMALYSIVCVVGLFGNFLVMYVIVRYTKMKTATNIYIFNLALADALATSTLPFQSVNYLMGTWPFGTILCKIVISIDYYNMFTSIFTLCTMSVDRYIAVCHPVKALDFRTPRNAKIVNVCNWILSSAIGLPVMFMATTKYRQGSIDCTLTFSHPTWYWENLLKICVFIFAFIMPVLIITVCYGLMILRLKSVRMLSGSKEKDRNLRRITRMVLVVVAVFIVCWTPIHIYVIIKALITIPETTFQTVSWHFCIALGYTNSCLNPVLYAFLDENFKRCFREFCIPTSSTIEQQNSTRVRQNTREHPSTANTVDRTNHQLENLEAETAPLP
T5 sequence (P41144 whole entry): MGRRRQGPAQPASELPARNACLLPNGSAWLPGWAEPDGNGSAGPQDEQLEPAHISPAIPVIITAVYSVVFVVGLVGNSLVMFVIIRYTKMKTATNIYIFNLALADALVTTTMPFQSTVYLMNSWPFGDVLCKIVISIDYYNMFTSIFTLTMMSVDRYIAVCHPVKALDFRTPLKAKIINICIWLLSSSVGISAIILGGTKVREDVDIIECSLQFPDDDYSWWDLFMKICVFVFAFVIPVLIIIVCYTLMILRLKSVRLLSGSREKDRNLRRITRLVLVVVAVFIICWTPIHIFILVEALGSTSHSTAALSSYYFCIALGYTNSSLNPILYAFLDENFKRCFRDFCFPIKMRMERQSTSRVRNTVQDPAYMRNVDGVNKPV
T3 sequence (P33533 whole entry): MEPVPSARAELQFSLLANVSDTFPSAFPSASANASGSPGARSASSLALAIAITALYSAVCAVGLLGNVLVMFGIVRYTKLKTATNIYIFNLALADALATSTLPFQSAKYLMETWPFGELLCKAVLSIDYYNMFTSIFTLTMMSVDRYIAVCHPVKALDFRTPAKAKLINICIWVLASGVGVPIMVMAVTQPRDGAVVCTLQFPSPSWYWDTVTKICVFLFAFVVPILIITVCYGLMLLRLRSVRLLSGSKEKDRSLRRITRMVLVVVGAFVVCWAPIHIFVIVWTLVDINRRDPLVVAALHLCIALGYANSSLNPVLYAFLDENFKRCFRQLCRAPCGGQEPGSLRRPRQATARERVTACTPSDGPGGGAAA
T2 sequence (Q60492 whole entry): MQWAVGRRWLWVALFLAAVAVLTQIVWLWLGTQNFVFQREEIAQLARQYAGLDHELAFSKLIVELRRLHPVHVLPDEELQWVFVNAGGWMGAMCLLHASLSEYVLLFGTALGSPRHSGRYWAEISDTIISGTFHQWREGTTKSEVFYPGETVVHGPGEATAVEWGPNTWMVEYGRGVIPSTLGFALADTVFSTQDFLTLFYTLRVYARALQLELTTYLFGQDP

COC(CN1CC[C@@]2(C)c3cc(O)ccc3C[C@@H]1[C@@H]2C)c1ccccc1 (single isomer, unassigned; (-)) [(−)-2R/S-LP2 (1)]
Ki (σ2R): 66.5 ± 10.9 nM
Ki (σ1R): 171 ± 46.1 nM

CO[C@@H](CN1CC[C@@]2(C)c3cc(O)ccc3C[C@@H]1[C@@H]2C)c1ccccc1 [(−)-2R-LP2 (2)]
analgesic effect, flinching/licking time in both phases of the formalin test ([1]; 2 mg/kg i.p. 20 min before 5% formalin): same profile with a minor potency
Ki (σ2R): 66.7 ± 17.9 nM
Ki (σ1R): 183 ± 21 nM

O=C(OCCN1CCOCC1)C1(c2ccccc2)CCCCC1 [PRE-084 hydrochloride, 2-morpholinoethyl 1-phenylcyclohexane-1-carboxylate]
severity of the first and second phases of formalin-induced pain, given alone [2]: did not change

COC(CN1CC[C@]2(C)c3cc(O)ccc3C[C@H]1[C@H]2C)c1ccccc1 (single isomer, unassigned; (+)) [(+)-2R/S-LP2 (7)]
Ki (DOR): 1040 ± 35 nM
Ki (MOR): 1140 ± 20 nM
severity of the first phase of formalin-induced pain ([1]; 5 mg/kg i.p. 20 min before formalin, phase I): did not alter
second phase of formalin-induced pain (number of flinches, lifting/licking time) ([1]; 5 mg/kg i.p. 20 min before formalin, phase II, vs vehicle): significantly decreased
antinociceptive effect after PRE-084 pre-treatment ([1]; PRE-084 hydrochloride 32 mg/kg s.c. 20 min before compound 5 mg/kg i.p., second phase): prevented
Ki (σ2R): 2390 ± 514 nM
Ki (σ1R): 26.6 ± 2.35 nM
Ki (KOR): 1390 ± 40 nM

CO[C@H](CN1CC[C@@]2(C)c3cc(O)ccc3C[C@@H]1[C@@H]2C)c1ccccc1 [(−)-2S-LP2 (3)]
analgesic effect, flinching/licking time in both phases of the formalin test ([1]; 0.7 mg/kg i.p. 20 min before 5% formalin): significant analgesic effect
antinociceptive effect after naloxone pre-treatment ([1]; naloxone hydrochloride 3 mg/kg s.c. 20 min before compound 0.7 mg/kg i.p.): antagonized
Ki (σ2R): 1010 ± 191 nM
Ki (σ1R): 113 ± 13.5 nM

CN1CCN(CCc2ccc(Cl)c(Cl)c2)CC1 [BD-1063, reference compound]
Ki (σ1R; [3H]-(+)-pentazocine 2 nM, guinea pig brain cortex membranes, read-out: Ki (nM) ± SD σ1R): 14 ± 2.7 nM

CO[C@@H](CN1CC[C@]2(C)c3cc(O)ccc3C[C@H]1[C@H]2C)c1ccccc1 [(+)-2R-LP2 (8), (2S,6S,11S)-3-((R)-2-methoxy-2-phenylethyl)-6,11-dimethyl-1,2,3,4,5,6-hexahydro-2,6-methanobenzo[d]azocin-8-ol]
Ki (DOR): 1010 ± 25 nM
Ki (MOR): 789 ± 30 nM
effect on nociceptive behaviour in the formalin test [1, 3]: not significative
Ki (σ2R): 1910 ± 325 nM
Ki (σ1R): 47.9 ± 7.52 nM
Ki σ2R/σ1R selectivity ratio (σ1R): 40
Ki (KOR): 1610 ± 70 nM

CO[C@H](CN1CC[C@]2(C)c3cc(O)ccc3C[C@H]1[C@H]2C)c1ccccc1 [(+)-2S-LP2 (9), (2S,6S,11S)-3-((S)-2-methoxy-2-phenylethyl)-6,11-dimethyl-1,2,3,4,5,6-hexahydro-2,6-methanobenzo[d]azocin-8-ol]
Ki (DOR): 1040 ± 40 nM
Ki (MOR): 1170 ± 30 nM
effect on nociceptive behaviour in the formalin test [1, 3]: did not differ significantly from the vehicle
Ki (σ2R): 2220 ± 417 nM
Ki (σ1R): 47 ± 8.82 nM
Ki σ2R/σ1R selectivity ratio (σ1R): 47
Ki (KOR): 1450 ± 29 nM
